# The source made the active and inactive calls. No cut-off for these calls is given here.
# Tests used:
# [1] = Cytotoxicity against African green monkey Vero cells assessed as reduction in cell viability measured after 72 hrs by MTT assay; type: toxicity, cell-based; settings: chlorocebus sabaeus
# Oropouche virus [2] = assay: (§1) Inhibition of Oropouche virus N-terminal His-tagged fusion endonuclease expressed in Escherichia coli Rosetta (DE3) cells using FAM-TCT CTA GCA GTG GCG CC-TAM as DNA substrate measured every 60 secs for 60 mins by fluorescence based analysis
# Oropouche virus [3] = assay: Antiviral activity against Oropouche virus infected in Vero cells incubated for 1 hr and measured after 3 days by crystal violet staining based analysis; type: functional, organism-based
# [4] = Selectivity index, ratio of CC50 for African green monkey Vero cells to EC50 for Oropouche virus infected in Vero cells; type: toxicity, cell-based; settings: read-out: Ratio CC50/EC50
# [5] = as §1
# [6] = Inhibition of Oropouche virus N-terminal His-tagged fusion endonuclease expressed in Escherichia coli Rosetta (DE3) cells using FAM-TCT CTA GCA GTG GCG CC-TAM as DNA substrate measured every 60 secs for 60 mins by FRET assay
SMILES,CC50 at 72 h [1] [µM],inhibition (Oropouche virus [2]),EC50 (Oropouche virus [3]) [µM],selectivity ratio [4],IC50 [5] [µM],IC50 [6] [µM]
Oc1cc(O)c2c(O)c3cc4ccccc4cc3nc2c1,1530,inactive,21.6,70.8,,
COc1cc2[nH]c3c(OC)c(OC)ccc3c(=O)c2c(OC)c1OC [CUSCULINE],1640,,33,49.6,1.4,
COc1cc(O)c2c(c1)oc(=O)c1c3cc(O)c(O)cc3oc21 [WEDELOLACTONE],374,,18.9,,,0.31
